How the values were obtained:
[1] = target: T1, NR2B subunit containing NMDA receptor (Rattus norvegicus, UniProt P35439+Q00960); test: Displacement of specific binding of racemic [3H](+)-(1S,2S)-1-(4-hydroxy-phenyl)-2-(4-hydroxy-4-phenylpiperidino)-1-propanol ([3H]CP-101,606) from rat forebrain membranes; details: ratio of the IC50s; greater than three is considered selective for NR2B over α1
T1 construct: (+)-(1S, 2S)-1-(4-hydroxy-phenyl)-2-(4-hydroxy-4-phenylpiperidino)-1-propanol from rat forebrain membranes; from tissue; host or cells: forebrain membranes of adult male CD rats
T1 sequence (Q00960 27-1482, other chains not shown): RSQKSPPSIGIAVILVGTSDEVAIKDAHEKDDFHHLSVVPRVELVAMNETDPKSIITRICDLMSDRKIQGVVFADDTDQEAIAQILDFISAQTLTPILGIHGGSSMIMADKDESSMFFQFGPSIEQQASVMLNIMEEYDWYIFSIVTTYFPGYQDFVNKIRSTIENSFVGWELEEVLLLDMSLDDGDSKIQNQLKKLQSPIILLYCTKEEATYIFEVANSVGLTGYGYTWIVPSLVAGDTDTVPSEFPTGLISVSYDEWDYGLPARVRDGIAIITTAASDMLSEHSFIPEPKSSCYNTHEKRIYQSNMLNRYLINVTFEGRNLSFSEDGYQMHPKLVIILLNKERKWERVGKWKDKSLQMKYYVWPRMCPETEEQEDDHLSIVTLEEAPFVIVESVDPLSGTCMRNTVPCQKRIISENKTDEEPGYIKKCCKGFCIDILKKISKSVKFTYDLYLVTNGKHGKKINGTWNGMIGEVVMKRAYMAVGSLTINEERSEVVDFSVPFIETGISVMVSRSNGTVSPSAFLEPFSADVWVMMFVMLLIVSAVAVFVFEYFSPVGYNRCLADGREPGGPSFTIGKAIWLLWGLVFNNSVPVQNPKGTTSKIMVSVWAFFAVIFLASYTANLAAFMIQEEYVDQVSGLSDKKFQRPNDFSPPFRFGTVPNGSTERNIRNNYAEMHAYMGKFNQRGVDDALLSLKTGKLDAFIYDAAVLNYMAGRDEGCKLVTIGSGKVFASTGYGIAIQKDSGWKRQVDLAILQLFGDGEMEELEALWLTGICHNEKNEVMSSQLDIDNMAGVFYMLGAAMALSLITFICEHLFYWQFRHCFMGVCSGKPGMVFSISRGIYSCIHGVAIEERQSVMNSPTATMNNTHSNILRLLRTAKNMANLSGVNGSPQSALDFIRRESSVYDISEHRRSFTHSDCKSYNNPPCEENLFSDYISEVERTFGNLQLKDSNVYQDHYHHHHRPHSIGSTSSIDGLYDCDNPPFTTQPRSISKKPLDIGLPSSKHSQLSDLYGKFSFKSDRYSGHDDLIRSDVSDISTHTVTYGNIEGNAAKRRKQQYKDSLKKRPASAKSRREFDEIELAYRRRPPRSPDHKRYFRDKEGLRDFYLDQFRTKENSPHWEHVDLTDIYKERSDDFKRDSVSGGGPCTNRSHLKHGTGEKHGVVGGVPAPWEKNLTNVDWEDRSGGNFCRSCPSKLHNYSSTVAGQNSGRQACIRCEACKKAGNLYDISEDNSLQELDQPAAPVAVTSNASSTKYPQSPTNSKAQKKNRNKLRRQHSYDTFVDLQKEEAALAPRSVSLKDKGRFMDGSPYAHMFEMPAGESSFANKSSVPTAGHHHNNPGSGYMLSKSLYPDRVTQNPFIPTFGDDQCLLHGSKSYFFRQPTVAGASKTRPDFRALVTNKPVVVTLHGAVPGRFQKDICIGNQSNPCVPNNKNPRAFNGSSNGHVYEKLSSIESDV
Experimental: This affinity is assessed in a radioligand binding assay as described later in this application.
This affinity is assessed in a radioligand binding assay as described below.
The binding of racemic [^3H] […] Forebrains of adult male CD rats are homogenized in 0.32M sucrose at 4° C. The crude nuclear pellet is removed by centrifugation at 1,000×g for 10 minutes, and the supernatant centrifuged at 17,000×g for 25 minutes. The resulting pellet is resuspended in 5 mM Tris acetate pH 7.4 at 4° C. for 10 minutes to lyse cellular particles and again centrifuged at 17,000×g. The resulting pellet is washed twice in Tris acetate, resuspended at 10 mg protein/ml and stored at −20° C. until use.
For binding assays, membranes are thawed, homogenized, and diluted to 0.5 mg protein/ml with 50 mM Tris HCl, pH 7.4. Compounds under study are added at various concentrations followed by racemic [^3H] […] Following incubation for 20 min at 30° C. in a shaking water bath, samples are filtered onto Whatman GFB glass fiber filters using a MB-48R Cell Harvester (Brandel Research and Development Laboratories, Gaithersburg Md.). Filters are washed for 10 s with ice cold Tris HCl buffer and the radioactivity trapped on the filter quantified by liquid scintillation spectroscopy. Nonspecific binding is determined in parallel incubations containing 100 μM racemic (+)-(1 S, 2S)-1-(4-hydroxy-phenyl)-2-(4-hydroxy-4-phenylpiperidino)-1-propanol. Specific binding is defined as total binding minus nonspecific binding.
Affinity for the NR^2B subunit containing NMDA receptor is measured as the IC50 for displacement of specific binding of racemic [^3H] […] Affinity for the α1-adrengergic receptor is defined as the IC50 for displacement of specific binding of racemic [^3H]prazosin from rat brain membranes, measured as described by Greengrass and Bremner (Binding Characteristics of [3H]prazosin to Rat Brain α-Adrenergic Receptors, European Journal of Pharmacology, 55, 323-326, (1979)).

α1-adrenergic receptor = test: Displacement of specific binding of [3H]prazosin from rat forebrain membranes; details: IC50 for displacement of specific binding, 0.2 nM radioligand
Experimental: Compounds of the formula I have selectivity for NR^2B subunit-containing NMDA receptors over α1-adrengergic receptors. Affinity for the NR^2B subunit containing NMDA receptor is measured as the IC50 for displacement of specific binding of racemic [^3H] (+)-(1S, 2S)-1-(4-hydroxy-phenyl)-2-(4-hydroxy-4-phenylpiperidino)-1-propanol from rat forebrain membranes (described above). Affinity for the α1-adrengergic receptor is defined as the IC50 for displacement of specific binding of racemic [^3H]prazosin from rat brain membranes, measured as described by Greengrass and Bremner (Binding Characteristics of [3H]prazosin to Rat Brain α-Adrenergic Receptors, European Journal of Pharmacology, 55, 323-326, (1979)).
Forebrains of adult male Sprague Dawley rats are homogenized in 20 volumes of ice cold 50 mM Tris/HCl buffer (pH 7.7). The homogenate is centrifuged at 50,000×g for 10 minutes at 4° C. The pellet is resuspended and centrifuged under identical conditions and the final pellet is resuspended in 80 volumes of 50 mM Tris/HCl (pH 8.0) at 4° C.
For binding assays, compounds under study are added at various concentrations to 500 μg membrane protein in 1 ml of 50 mM Tris/HCl buffer, followed by [^3H]prazosin (Amersham, specific activity 33 Ci/mmol, 0.2 nM final concentration). Following incubation for 30 min at 25° C. in a shaking water bath, samples are filtered onto Whatman GFB glass fiber filters using a MB-48R Cell Harvester (Brandel Research and Development Laboratories, Gaithersburg Md.). Filters are washed three times for 10 s with ice cold Tris HCl buffer and the radioactivity trapped on the filter quantified by liquid scintillation spectroscopy. Nonspecific binding is determined in parallel incubations containing 100 nM prazosin. Specific binding is defined as total binding minus nonspecific binding.

| melting point [°C] | Structure (SMILES) | Ratio [^3H]Prazosin/[^3H] (+)-(1S, 2S)-1-(4-hydroxy-phenyl)-2-(4-hydroxy-4-phenylpiperidino)-1-propanol [1] | IC50 (α1-adrenergic receptor) [µM] |
| --- | --- | --- | --- |
| 159 to 160 | Oc1ccc2c(c1)OCC(N1CCC(O)(c3ccc(F)cc3)CC1)[C@H]2O (stereo in doubt) |  |  |
|  | COc1cc([C@H](O)[C@H](C)N2CCC(O)(c3ccccc3)CC2)ccc1O [(1S, 2S)-1-(4-hydroxy-3-methoxyphenyl)-2-(4-hydroxy-4-phenylpiperidino)-1-propanol] | 86 | 8.1 |
|  | Oc1ccc2c(c1)OC[C@@H](N1CCC(O)(c3ccc(F)cc3)CC1)[C@H]2O [(3R, 4S)-3-(4-(4-fluorophenyl)-4-hydroxypiperidin-1-yl)-chroman-4,7-diol] | ≧555 | > 10 |
|  | C[C@@H]([C@@H](O)c1ccc(O)cc1)N1CCC(O)(c2ccccc2)CC1 [(+)-(1S, 2S)-1-(4-hydroxy-phenyl)-2-(4-hydroxy-4-phenylpiperidino)-1-propanol] |  | 19.5 |
|  | OC(CN1CCC(Cc2ccc(F)cc2)CC1)c1ccc(Cl)cc1 (centres unmarked) [Eliprodil, reference compound] | 2.2 | 0.98 ± 0.22 |
